pKi: −log10 of the molar value. Bounds are passed on as bounds.

This assay is described as follows: Binding affinity was measured by its ability to displace [3H]CCK-8S from CCK-B receptor in guinea pig brain.

Regarding `CC(C)CCN1C(=O)C(NC(=O)Nc2ccccc2)C(=O)N(c2ccccc2)c2ccc(F)cc21` (stereo not given), the pKi was > 6.00. The compound `CC(C)CCN1C(=O)C(NC(=O)Nc2ccccc2)C(=O)N(c2ccccc2)c2ccc(Cl)cc21` (stereo not given) showed a pKi of 6.02. In the case of `CC(C)CCN1C(=O)C(NC(=O)Nc2ccccc2)C(=O)N(c2ccccc2)c2cc(Cl)c(Cl)cc21` (stereo not given) it was 5.80; in that of `CC(C)CCN1C(=O)C(NC(=O)Nc2ccccc2)C(=O)N(c2ccccc2)c2cc(F)ccc21` (stereo not given), 6.65. In the case of `CC(C)CCN1C(=O)C(NC(=O)Nc2ccccc2)C(=O)N(c2ccccc2)c2cc(Cl)ccc21` (stereo not given) it was 6.02.

Source of the values: BindingDB's records for doi:10.7270/Q2CV4KX9 (n/a, 1995).
